Earlier results, collected in patent publication US11324751B1 (Janssen Pharmaceutica NV, priority 2020, dated 2022).

water solubility: extreme low water solubility
Compound: CCCCCCCCCCCCCCCC(=O)OC1CCCn2c1nc(C)c(CCN1CCC(c3noc4cc(F)ccc34)CC1)c2=O (racemic) [paliperidone palmitate, (=)-3-[2-[4-(6-fluoro-1,2-benzisoxazol-3-yl)-1-piperidinyl]ethyl]-6,7,8,9-tetrahydro-2-methyl-4-oxo-4H-pyrido[1,2-c]pyrimidin-9-yl hexadecanoate]
